Source: patent US10294202B2, “Pyrrolidinones as herbicides” (FMC Corporation, priority 2013, dated 2019)

Columns and labels:
[1] = system: field poppy; assay: Test D pre-/postemergence herbicide test; type: in vivo, Papaver rhoeas; conditions: for Plant response rating: Field Poppy, scale 0 to 100; for Plant response rating, Field Poppy: scale 0 to 100 (0 no effect, 100 complete control)
Procedure, shortened: (§1)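 Test chemicals, formulated in a non-phytotoxic solvent mixture with surfactant, are sprayed preemergence onto seeds in silt loam and postemergence onto plants of 2–18 cm. Plants are held in a controlled growth environment for 7 to 21 days, then rated visually versus controls (0–100).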

[2] = system: foxtail, green; assay: Test D pre-/postemergence herbicide test; type: in vivo, Setaria viridis; conditions: for Plant response rating: Foxtail, Green, scale 0 to 100; for Plant response rating, Foxtail, Green: scale 0 to 100 (0 no effect, 100 complete control)
Procedure, shortened: as §1

[3] = system: deadnettle; assay: Test D pre-/postemergence herbicide test; type: in vivo, Lamium amplexicaule; conditions: for Plant response rating: Deadnettle, scale 0 to 100; for Plant response rating, Deadnettle: scale 0 to 100 (0 no effect, 100 complete control)
Procedure, shortened: as §1

[4] = system: chamomile; assay: Test D pre-/postemergence herbicide test; type: in vivo, Matricaria inodora; conditions: for Plant response rating: Chamomile, scale 0 to 100; for Plant response rating, Chamomile: scale 0 to 100 (0 no effect, 100 complete control)
Source text: (§2) Seeds of plant species selected from bluegrass (annual bluegrass, Poa annua), blackgrass (Alopecurus myosuroides), canarygrass (littleseed canarygrass, Phalaris minor), chickweed (common chickweed, Stellaria media), galium (catchweed bedstraw, Galium aparine), bromegrass, downy (downy bromegrass, Bromus tectorum), field poppy (Papaver rhoeas), field violet (Viola arvensis), foxtail, green (green foxtail, Setaria viridis), deadnettle (henbit deadnettle, Lamium amplexicaule), ryegrass, Italian (Italian ryegrass, Lolium multiflorum), kochia (Kochia scoparia), lambsquarters (Chenopodium album), oilseed rape (Brassica napus), pigweed (Amaranthus retroflexus), chamomile (scentless chamomile, Matricaria inodora), Russian thistle (Salsola kali), speedwell (bird's-eye speedwell, Veronica persica), barley, spring (spring barley, Hordeum vulgare), wheat, spring (spring wheat, Triticum aestivum), buckwheat, wild (wild buckwheat, Polygonum convolvulus), mustard, wild (wild mustard, Sinapis arvensis), oat, wild (wild oat, Avena fatua), radish, wild (wild radish, Raphanus raphanistrum), […]), barley, winter (winter barley, Hordeum vulgare), and wheat, winter (winter wheat, Triticum aestivum) were planted into a silt loam soil and treated preemergence with test chemicals formulated in a non-phytotoxic solvent mixture which included a surfactant. At the same time, these species were planted in pots containing Redi-Earth® planting medium (Scotts Company, 14111 Scottslawn Road, Marysville, Ohio 43041) comprising spaghnum peat moss, vermiculite, wetting agent and starter nutrients and treated with postemergence applications of the test chemicals formulated in the same manner. Plants ranged in height from 2 to 18 cm (1- to 4-leaf stage). Treated plants and controls were maintained in a controlled growth environment for 7 to 21 days after which time all species were compared to controls and visually evaluated. Plant response ratings, summarized in Table D, are based on a scale of 0 to 100 where 0 is no effect and 100 is complete control. A dash (-) response means no test result.

[5] = system: windgrass; assay: Test D pre-/postemergence herbicide test; type: in vivo, Apera spica-venti; conditions: for Plant response rating: Postemergence, Windgrass, scale 0 to 100; for Plant response rating, Windgrass: Preemergence, scale 0 to 100 (0 no effect, 100 complete control)
Source text: as §2

[6] = system: crabgrass, Brazil; assay: Test E preemergence herbicide test; type: in vivo, Digitaria horizontalis; parameters: key: 0 = no effect, 100 = complete control
Source text: Seeds of plant species selected from corn (Zea mays), soybean (Glycine max), velvetleaf (Abutilon theophrasti), lambsquarters (Chenopodium album), wild poinsettia (Euphorbia heterophylla), pigweed, palmer (palmer pigweed, Amaranthus palmeri), waterhemp (common waterhemp, Amaranthus rudis), surinam grass (Brachiaria decumbens), crabgrass, large (large crabgrass, Digitaria sanguinalis), crabgrass, Brazil (Brazilian crabgrass, Digitaria horizontalis), panicum, fall (fall panicum, Panicum dichotomiflorum), foxtail, giant (giant foxtail, Setaria faberii), foxtail, green (green foxtail, Setaria viridis), goosegrass (Eleusine indica), johnsongrass (Sorghum halepense), ragweed (common ragweed, Ambrosia elatior), barnyardgrass (Echinochloa crus-galli), sandbur (southern sandbur, Cenchrus echinatus), arrowleaf […] rhombifolia), ryegrass, Italian (Italian ryegrass, Lolium multiflorum), dayflower, VA (Virginia dayflower, Commelina virginica), field bindweed (Convolvulus arvensis), morningglory (Ipomoea coccinea), nightshade (eastern black nightshade, Solanum ptycanthum), kochia (Kochia scoparia), nutsedge, yellow (yellow nutsedge, Cyperus esculentus), cocklebur (common cocklebur, Xanthium strumarium), smartweed (ladysthumb smartweed, Polygonum Persicaria) and beggarticks (hairy beggarticks, Bidens pilosa), were planted into a silt loam soil and treated preemergence with test chemicals formulated in a non-phytotoxic solvent mixture which included a surfactant. Treated plants and controls were maintained in a greenhouse for 21 days, after which time all species were compared to controls and visually evaluated. Plant response ratings, summarized in Table E, are based on a scale of 0 to 100 where 0 is no effect and 100 is complete control. A dash (-) response means no test result.

With `O=C1NCC(c2ccc(F)c(F)c2)C1C(=O)Nc1cccc(F)c1` (racemic) [Compound 12] the Plant response rating ([1]; Postemergence, 16 g ai/ha) was 0, the Plant response rating ([1]; Postemergence, 31 g ai/ha) was 0 and the Plant response rating ([1]; Postemergence, 62 g ai/ha) was 50. For the same compound, the Plant response rating ([1]; Postemergence, 125 g ai/ha) was 60, the Plant response rating ([1]; Postemergence, 250 g ai/ha) was 80 and the “Plant response rating, Field Poppy” value ([1]; Preemergence, 31 g ai/ha) was 0. For the same compound, the “Plant response rating, Field Poppy” value ([1]; Preemergence, 62 g ai/ha) was 0, the “Plant response rating, Field Poppy” value ([1]; Preemergence, 16 g ai/ha) was 0 and the Plant response rating ([1]; Preemergence, 125 g ai/ha) was 0. The Plant response rating ([1]; Preemergence, 250 g ai/ha) was 0, the Plant response rating ([2]; Postemergence, 16 g ai/ha) was 0 and the Plant response rating ([2]; Postemergence, 31 g ai/ha) was 0. The Plant response rating ([2]; Postemergence, 62 g ai/ha) was 10, the Plant response rating ([2]; Postemergence, 125 g ai/ha) was 20 and the Plant response rating ([2]; Postemergence, 250 g ai/ha) was 25. The “Plant response rating, Foxtail, Green” value ([2]; Preemergence, 31 g ai/ha) was 0, the “Plant response rating, Foxtail, Green” value ([2]; Preemergence, 62 g ai/ha) was 0 and the “Plant response rating, Foxtail, Green” value ([2]; Preemergence, 16 g ai/ha) was 0. It also gave a Plant response rating ([2]; Preemergence, 125 g ai/ha) of 0, a Plant response rating ([2]; Preemergence, 250 g ai/ha) of 0 and a Plant response rating ([3]; Postemergence, 16 g ai/ha) of 0. For the same compound, the Plant response rating ([3]; Postemergence, 31 g ai/ha) was 0, the Plant response rating ([3]; Postemergence, 62 g ai/ha) was 10 and the Plant response rating ([3]; Postemergence, 125 g ai/ha) was 15. The Plant response rating ([3]; Postemergence, 250 g ai/ha) was 20, the “Plant response rating, Deadnettle” value ([3]; Preemergence, 31 g ai/ha) was 0 and the “Plant response rating, Deadnettle” value ([3]; Preemergence, 62 g ai/ha) was 0. For the same compound, the “Plant response rating, Deadnettle” value ([3]; Preemergence, 16 g ai/ha) was 0, the Plant response rating ([3]; Preemergence, 125 g ai/ha) was 0 and the Plant response rating ([3]; Preemergence, 250 g ai/ha) was 50. It also gave a Plant response rating ([4]; Postemergence, 16 g ai/ha) of 0, a Plant response rating ([4]; Postemergence, 31 g ai/ha) of 0 and a Plant response rating ([4]; Postemergence, 62 g ai/ha) of 0. The Plant response rating ([4]; Postemergence, 125 g ai/ha) was 0, the Plant response rating ([4]; Postemergence, 250 g ai/ha) was 0 and the “Plant response rating, Chamomile” value ([4]; Preemergence, 31 g ai/ha) was 0. For the same compound, the “Plant response rating, Chamomile” value ([4]; Preemergence, 62 g ai/ha) was 0, the “Plant response rating, Chamomile” value ([4]; Preemergence, 16 g ai/ha) was 0 and the Plant response rating ([4]; Preemergence, 125 g ai/ha) was 0. It also gave a Plant response rating ([4]; Preemergence, 250 g ai/ha) of 20, a Plant response rating ([5]; 16 g ai/ha) of 0 and a Plant response rating ([5]; 31 g ai/ha) of 0. For the same compound, the Plant response rating ([5]; 62 g ai/ha) was 0, the Plant response rating ([5]; 125 g ai/ha) was 0 and the Plant response rating ([5]; 250 g ai/ha) was 5. For the same compound, the “Plant response rating, Windgrass” value ([5]; 31 g ai/ha) was 0, the “Plant response rating, Windgrass” value ([5]; 62 g ai/ha) was 0 and the “Plant response rating, Windgrass” value ([5]; 125 g ai/ha) was 0. The “Plant response rating, Windgrass” value ([5]; 250 g ai/ha) was 0 and the “Plant response rating, Windgrass” value ([5]; 16 g ai/ha) was 0.
For `O=C1NCC(c2ccc(F)cc2)C1C(=O)Nc1ccccc1F` (racemic) [Compound 16], the “Plant response rating, Crabgrass, Brazil” value ([6]; 16 g ai/ha) was 25, the “Plant response rating, Crabgrass, Brazil” value ([6]; 31 g ai/ha) was 25 and the “Plant response rating, Crabgrass, Brazil” value ([6]; 62 g ai/ha) was 65. For the same compound, the “Plant response rating, Crabgrass, Brazil” value ([6]; 125 g ai/ha) was 80 and the “Plant response rating, Crabgrass, Brazil” value ([6]; 250 g ai/ha) was 98.
Work on `O=C1NCC(c2cc(F)c(F)c(F)c2)C1C(=O)Nc1ccccc1C(F)(F)F` (racemic) [Compound 33] yielded a Plant response rating ([1]; Postemergence, 16 g ai/ha) of 0, a Plant response rating ([1]; Postemergence, 31 g ai/ha) of 0 and a Plant response rating ([1]; Postemergence, 62 g ai/ha) of 0. The Plant response rating ([1]; Postemergence, 125 g ai/ha) was 0, the Plant response rating ([1]; Postemergence, 250 g ai/ha) was 0 and the Plant response rating ([2]; Postemergence, 16 g ai/ha) was 0. The Plant response rating ([2]; Postemergence, 31 g ai/ha) was 0, the Plant response rating ([2]; Postemergence, 62 g ai/ha) was 0 and the Plant response rating ([2]; Postemergence, 125 g ai/ha) was 0. For the same compound, the Plant response rating ([2]; Postemergence, 250 g ai/ha) was 0, the Plant response rating ([3]; Postemergence, 16 g ai/ha) was 0 and the Plant response rating ([3]; Postemergence, 31 g ai/ha) was 0. It also gave a Plant response rating ([3]; Postemergence, 62 g ai/ha) of 0, a Plant response rating ([3]; Postemergence, 125 g ai/ha) of 0 and a Plant response rating ([3]; Postemergence, 250 g ai/ha) of 10. It also gave a Plant response rating ([4]; Postemergence, 16 g ai/ha) of 0, a Plant response rating ([4]; Postemergence, 31 g ai/ha) of 0 and a Plant response rating ([4]; Postemergence, 62 g ai/ha) of 0. It also gave a Plant response rating ([4]; Postemergence, 125 g ai/ha) of 0, a Plant response rating ([4]; Postemergence, 250 g ai/ha) of 0 and a Plant response rating ([5]; 16 g ai/ha) of 0. For the same compound, the Plant response rating ([5]; 31 g ai/ha) was 0, the Plant response rating ([5]; 62 g ai/ha) was 0 and the Plant response rating ([5]; 125 g ai/ha) was 0. It also gave a Plant response rating ([5]; 250 g ai/ha) of 0.
For `O=C1NCC(c2cc(F)c(F)c(F)c2)C1C(=O)Nc1ccccc1F` (racemic) [Compound 34], the Plant response rating ([1]; Postemergence, 16 g ai/ha) was 0, the Plant response rating ([1]; Postemergence, 31 g ai/ha) was 0 and the Plant response rating ([1]; Postemergence, 62 g ai/ha) was 0. For the same compound, the Plant response rating ([1]; Postemergence, 125 g ai/ha) was 0, the Plant response rating ([1]; Postemergence, 250 g ai/ha) was 20 and the Plant response rating ([2]; Postemergence, 16 g ai/ha) was 0. The Plant response rating ([2]; Postemergence, 31 g ai/ha) was 0, the Plant response rating ([2]; Postemergence, 62 g ai/ha) was 0 and the Plant response rating ([2]; Postemergence, 125 g ai/ha) was 0. It also gave a Plant response rating ([2]; Postemergence, 250 g ai/ha) of 0, a Plant response rating ([3]; Postemergence, 16 g ai/ha) of 0 and a Plant response rating ([3]; Postemergence, 31 g ai/ha) of 0. The Plant response rating ([3]; Postemergence, 62 g ai/ha) was 0, the Plant response rating ([3]; Postemergence, 125 g ai/ha) was 0 and the Plant response rating ([3]; Postemergence, 250 g ai/ha) was 0. The Plant response rating ([4]; Postemergence, 16 g ai/ha) was 0, the Plant response rating ([4]; Postemergence, 31 g ai/ha) was 0 and the Plant response rating ([4]; Postemergence, 62 g ai/ha) was 0. It also gave a Plant response rating ([4]; Postemergence, 125 g ai/ha) of 0, a Plant response rating ([4]; Postemergence, 250 g ai/ha) of 0 and a Plant response rating ([5]; 16 g ai/ha) of 0. The Plant response rating ([5]; 31 g ai/ha) was 0, the Plant response rating ([5]; 62 g ai/ha) was 0 and the Plant response rating ([5]; 125 g ai/ha) was 0. The Plant response rating ([5]; 250 g ai/ha) was 0.
